What follows are compounds tested on hepatocellular carcinoma cell line Hub-7 (assay: Cell proliferation assay, Hub-7 (CELL-TITER GLO)). Conditions: Hub-7 cells, 24 h incubation, cell viability by CELL-TITER GLO, top concentration 10 μM; read-out: EC50, Inhibition of Hub-7 Cell Proliferation.
Type: cell-based
Outline: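 Hub-7 cells, 4,000 per well, seeded overnight, then exposed 24 h to compound from 10 μM top in 3-fold serial dilution. Viability read by CELL-TITER GLO luminescence; EC50 derived and binned into potency categories.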
For `C#Cc1nc(C(=O)NCc2ccc([N+](=O)[O-])cc2)cs1` [Compound C103, 2-Ethynyl-N-(4-nitrobenzyl)thiazole-4-carboxamide], the EC50 was no more than 200 nM. For `C#Cc1nc(C(=O)NCc2ccc(C#N)cc2)cs1` [Compound C104, N-(4-Cyanobenzyl)-2-ethynylthiazole-4-carboxamide], the EC50 was 200 to 1000 nM. `C#Cc1nc(C(=O)NCCc2cccc(S(C)(=O)=O)c2)cs1` [Compound C105, 2-Ethynyl-N-(3-(methylsulfonyl)phenethyl)thiazole-4-carboxamide] gave an EC50 of 1000 to 5000 nM. `C#Cc1nc(C(=O)NCCc2ccccc2Cl)cs1` [Compound C106, N-(2-Chlorophenethyl)-2-ethynylthiazole-4-carboxamide] showed an EC50 of 200 to 1000 nM. `C#Cc1nc(C(=O)NCc2cccc([N+](=O)[O-])c2)cs1` [Compound C107, 2-Ethynyl-N-(3-nitrobenzyl)thiazole-4-carboxamide] gave an EC50 of 200 to 1000 nM. Compound `C#Cc1nc(C(=O)NCc2ccc(S(C)(=O)=O)cc2)cs1` [Compound C108, 2-Ethynyl-N-(4-(methylsulfonyl)benzyl)thiazole-4-carboxamide] has an EC50 of 1000 to 5000 nM. `C#Cc1nc(C(=O)NCc2ncccc2Cl)cs1` [Compound C109, N-((3-Chloropyridin-2-yl)methyl)-2-ethynylthiazole-4-carboxamide] showed an EC50 of 1000 to 5000 nM. Work on `C#Cc1nc(C(=O)NCCc2cccc(Cl)c2)cs1` [Compound C110, N-(3-Chlorophenethyl)-2-ethynylthiazole-4-carboxamide] yielded an EC50 of 200 to 1000 nM. Compound `C#Cc1nc(C(=O)NCc2ccccc2)c[nH]1` [Compound C111, N-Benzyl-2-ethynyl-1H-imidazole-4-carboxamide] has an EC50 greater than 5000 nM. Compound `C#Cc1nc(C(=O)NCc2ccccc2-c2ccccc2)cs1` [Compound C112, N-([1,1′-Biphenyl]-2-ylmethyl)-2-ethynylthiazole-4-carboxamide] has an EC50 of 200 to 1000 nM. Compound `C#Cc1nc(C(=O)NCc2cccc3ccccc23)cs1` [Compound C113, 2-Ethynyl-N-(naphthalen-1-ylmethyl)thiazole-4-carboxamide] has an EC50 of no more than 200 nM. Work on `C#Cc1nc(C(=O)NCc2ccc(-c3ccccc3)cc2)cs1` [Compound C114, N-([1,1′-Biphenyl]-4-ylmethyl)-2-ethynylthiazole-4-carboxamide] yielded an EC50 of no more than 200 nM. `C#Cc1nc(C(=O)NCc2cccc(-c3ccccc3)c2)cs1` [Compound C115, N-([1,1′-Biphenyl]-3-ylmethyl)-2-ethynylthiazole-4-carboxamide] showed an EC50 of no more than 200 nM. In the case of `C#Cc1nc(C(=O)N(CCC(=O)OCC)Cc2ccccc2)cs1` [Compound C116, Ethyl 3-(N-benzyl-2-ethynylthiazole-4-carboxamido)propanoate], the EC50 is reported as 1000 to 5000 nM. `C#Cc1nc(C(=O)NCc2ccc(C(=O)OC)cc2)cs1` [Compound C117, Methyl 4-((2-ethynylthiazole-4-carboxamido)methyl)benzoate] showed an EC50 of 200 to 1000 nM. `C#Cc1nc(C(=O)NCc2ccc(N)cc2)cs1` [Compound C118, N-(4-Aminobenzyl)-2-ethynylthiazole-4-carboxamide] showed an EC50 of 200 to 1000 nM. Compound `C#Cc1nc(C(=O)NCc2ccn(C)n2)cs1` [Compound C119, 2-Ethynyl-N-((1-methyl-1H-pyrazol-3-yl)methyl)thiazole-4-carboxamide] has an EC50 greater than 5000 nM. Compound `C#Cc1nc(C(=O)NCc2cnn(C)c2)cs1` [Compound C120, 2-Ethynyl-N-((1-methyl-1H-pyrazol-4-yl)methyl)thiazole-4-carboxamide] has an EC50 greater than 5000 nM. `C#Cc1nc(C(=O)NCc2ccc(O)cc2)cs1` [Compound C121, 2-Ethynyl-N-(4-hydroxybenzyl)thiazole-4-carboxamide] showed an EC50 of 1000 to 5000 nM. `C#Cc1nc(C(=O)NCCc2ccc(O)c(OC)c2)cs1` [Compound C122, 2-Ethynyl-N-(4-hydroxy-3-methoxyphenethyl)thiazole-4-carboxamide] gave an EC50 of 1000 to 5000 nM. For `C#Cc1nc(NC(=O)CCc2ccccc2)cs1` [Compound C123, N-(2-Ethynylthiazol-4-yl)-3-phenylpropanamide], the EC50 was 200 to 1000 nM. For `C#Cc1nc(C(=O)NCc2cccc(C(=O)OC)c2)cs1` [Compound C124, Methyl 3-((2-ethynylthiazole-4-carboxamido)methyl)benzoate], the EC50 was 200 to 1000 nM. Work on `C#Cc1nc(C(=O)NCc2cccc(Cl)c2)cs1` [Compound C125, N-(3-Chlorobenzyl)-2-ethynylthiazole-4-carboxamide] yielded an EC50 of no more than 200 nM. `C#Cc1nc(C(=O)NCc2ccccn2)cs1` [Compound C126, 2-Ethynyl-N-(pyridin-2-ylmethyl)thiazole-4-carboxamide] was tested, and the EC50 was 1000 to 5000 nM. Work on `C#Cc1nc(C(=O)NCc2cccc(C#N)c2)cs1` [Compound C127, N-(3-Cyanobenzyl)-2-ethynylthiazole-4-carboxamide] yielded an EC50 of 200 to 1000 nM. In the case of `C#Cc1nc(C(=O)NCCc2ccc(N)cc2)cs1` [Compound C128, N-(4-Aminophenethyl)-2-ethynylthiazole-4-carboxamide], the EC50 is reported as 1000 to 5000 nM. For `C#Cc1nc(C(=O)NCCc2ccc([N+](=O)[O-])cc2)cs1` [Compound C129, 2-Ethynyl-N-(4-nitrophenethyl)thiazole-4-carboxamide], the EC50 was no more than 200 nM. `C#Cc1nc(C(=O)Nc2cccc3[nH]ncc23)cs1` [Compound C130, 2-Ethynyl-N-(1H-indazol-4-yl)thiazole-4-carboxamide] gave an EC50 of 1000 to 5000 nM. `C#Cc1nc(C(=O)N(CC(=O)OCC)Cc2ccccc2)cs1` [Compound C131, Ethyl N-benzyl-N-(2-ethynylthiazole-4-carbonyl)glycinate] was tested, and the EC50 was 1000 to 5000 nM. `C#Cc1ncc(C(=O)NCc2ccccc2)n1C` [Compound C132, N-Benzyl-2-ethynyl-1-methyl-1H-imidazole-5-carboxamide] gave an EC50 greater than 5000 nM. In the case of `C#Cc1nc(C(=O)N(CCO)Cc2ccccc2)cs1` [Compound C133, N-Benzyl-2-ethynyl-N-(2-hydroxyethyl)thiazole-4-carboxamide], the EC50 is reported as 1000 to 5000 nM. `C#Cc1nc(C(=O)Nc2cccc3cn[nH]c23)cs1` [Compound C134, 2-Ethynyl-N-(11H-indazol-7-yl)thiazole-4-carboxamide] gave an EC50 of 1000 to 5000 nM. For `C#Cc1nc(C(=O)NC[C@@H](O)c2ccccc2)cs1` [Compound C135, (S)-2-Ethynyl-N-(2-hydroxy-2-phenylethyl)thiazole-4-carboxamide], the EC50 was 1000 to 5000 nM. In the case of `C#Cc1nc(C(=O)NCc2ccccc2NC(C)=O)cs1` [Compound C136, N-(2-Acetamidobenzyl)-2-ethynylthiazole-4-carboxamide], the EC50 is reported as greater than 5000 nM. `C#Cc1nc(C(=O)N(C)Cc2ccccc2)cs1` [Compound C137, N-Benzyl-2-ethynyl-N-methylthiazole-4-carboxamide] gave an EC50 of 1000 to 5000 nM. In the case of `C#Cc1nc(C(=O)NCCc2ccccc2)cs1` [Compound C138, 2-Ethynyl-N-phenethylthiazole-4-carboxamide], the EC50 is reported as 1000 to 5000 nM. Work on `C#Cc1nc(C(=O)NCc2cccc3[nH]ccc23)cs1` [Compound C139, N-((1H-Indol-4-yl)methyl)-2-ethynylthiazole-4-carboxamide] yielded an EC50 greater than 5000 nM. `C#Cc1nc(C(=O)NCc2ccccc2N)cs1` [Compound C140, N-(2-Aminobenzyl)-2-ethynylthiazole-4-carboxamide] showed an EC50 of 1000 to 5000 nM. Compound `C#Cc1ncc(C(=O)NCc2ccccc2)s1` [Compound C141, N-Benzyl-2-ethynylthiazole-5-carboxamide] has an EC50 of 1000 to 5000 nM. `C#Cc1nc(C(=O)NCc2ccccc2)co1` [Compound C142, N-Benzyl-2-ethynyloxazole-4-carboxamide] was tested, and the EC50 was greater than 5000 nM. `C#Cc1nc(C(=O)NCc2ccccc2Cl)cs1` [Compound C143, N-(2-Chlorobenzyl)-2-ethynylthiazole-4-carboxamide] was tested, and the EC50 was 200 to 1000 nM. `C#Cc1nc(C(=O)NCc2ccccc2OC)cs1` [Compound C144, 2-Ethynyl-N-(2-methoxybenzyl)thiazole-4-carboxamide] was tested, and the EC50 was 1000 to 5000 nM. For `C#Cc1csc(C(=O)NCc2ccccc2)n1` [Compound C145, N-Benzyl-4-ethynylthiazole-2-carboxamide], the EC50 was greater than 5000 nM. Compound `C#Cc1nc(C(=O)NCc2ccccc2)cs1` [Compound C148, N-Benzyl-2-ethynylthiazole-4-carboxamide] has an EC50 of 1000 to 5000 nM. `C#Cc1nc(C(=O)N2CCN(c3ccc(-c4c(C)ccc5c4cnn5C)cc3)CC2)cs1` [Compound D1, (4-(4-(1,5-Dimethyl-1H-indazol-4-yl)phenyl)piperazin-1-yl)(2-ethynylthiazol-4-yl)methanone] showed an EC50 of no more than 200 nM. Work on `C#Cc1nc(C(=O)N2CCN(c3ccc(-c4cc(C(=O)OC)cc5c4cnn5C)cc3)CC2)cs1` [Compound D2, Methyl 4-(4-(4-(2-ethynylthiazole-4-carbonyl)piperazin-1-yl)phenyl)-1-methyl-1H-indazole-6-carboxylate] yielded an EC50 of no more than 200 nM. `C#Cc1nc(C(=O)N2CCN(c3ccc(-c4cc(C(=O)NC)cc5ncsc45)cc3)CC2)cs1` [Compound D3, 7-(4-(4-(2-Ethynylthiazole-4-carbonyl)piperazin-1-yl)phenyl)-N-methylbenzo[d]thiazole-5-carboxamide] was tested, and the EC50 was 200 to 1000 nM. `C#Cc1nc(C(=O)N2CCN(c3ccc(-c4cc(C(=O)OC)cc5ncsc45)cc3)CC2)cs1` [Compound D4, Methyl 7-(4-(4-(2-ethynylthiazole-4-carbonyl)piperazin-1-yl)phenyl)benzo[d]-thiazole-5-carboxylate] showed an EC50 of no more than 200 nM. With `C#Cc1nc(C(=O)N2CCN(c3ccc(-c4cc(C(N)=O)cc5ncsc45)cc3)CC2)cs1` [Compound D5, 7-(4-(4-(2-Ethynylthiazole-4-carbonyl)piperazin-1-yl)phenyl)benzo[d]thiazole-5-carboxamide] the EC50 was 1000 to 5000 nM. With `C#Cc1nc(C(=O)N2CCN(c3ccc(-c4cc(C(=O)N(C)C)cc5ncsc45)cc3)CC2)cs1` [Compound D6, 7-(4-(4-(2-Ethynylthiazole-4-carbonyl)piperazin-1-yl)phenyl)-N,N-dimethyl-benzo[d]thiazole-5-carboxamide] the EC50 was no more than 200 nM. With `C#Cc1ncc(C(=O)N2CCN(c3ccc(-c4cccc5ncsc45)cc3)CC2)s1` [Compound D7, (4-(4-(benzo[d]thiazol-7-yl)phenyl)piperazin-1-yl)(2-ethynylthiazol-5-yl)methanone] the EC50 was no more than 200 nM.

Reference: patent US20240101546A1, “HETEROARYL-ACETYLENES, PHARMACEUTICAL COMPOSITIONS THEREOF, AND THEIR THERAPEUTIC APPLICATIONS” (Eubulus Biotherapeutics Inc., priority 2020, published 2024)
